Data published in US20040063662A1, “Selenophene anti-tumor agents” (priority 1996, published 2004).

Key:
CCRF-CEM = assay: NCI human tumor cell panel: CCRF-CEM (Leukemia); assay type: cell-based
K-562 = assay: NCI human tumor cell panel: K-562 (Leukemia); assay type: cell-based
MOLT-4 = assay: NCI human tumor cell panel: MOLT-4 (Leukemia); assay type: cell-based
RPMI-8226 = assay: NCI human tumor cell panel: RPMI-8226 (Leukemia); assay type: cell-based
A549/ATCC = assay: NCI human tumor cell panel: A549/ATCC (Non-Small Cell Lung Cancer); assay type: cell-based
NCI-H460 = assay: NCI human tumor cell panel: NCI-H460 (Non-Small Cell Lung Cancer); assay type: cell-based; settings: NCI-H460, read-out: Log10 TGI (converted)
HCC-2998 = assay: NCI human tumor cell panel: HCC-2998 (Colon Cancer); assay type: cell-based
HCT-116 = assay: NCI human tumor cell panel: HCT-116 (Colon Cancer); assay type: cell-based
SF-295 = assay: NCI human tumor cell panel: SF-295 (CNS Cancer); assay type: cell-based
SNB-19 = assay: NCI human tumor cell panel: SNB-19 (CNS Cancer); assay type: cell-based
SNB-75 = assay: NCI human tumor cell panel: SNB-75 (CNS Cancer); assay type: cell-based
U251 = assay: NCI human tumor cell panel: U251 (CNS Cancer); assay type: cell-based
LOX IMVI = assay: NCI human tumor cell panel: LOX IMVI (Melanoma); assay type: cell-based
M14 = assay: NCI human tumor cell panel: M14 (Melanoma); assay type: cell-based
SK-MEL-5 = assay: NCI human tumor cell panel: SK-MEL-5 (Melanoma); assay type: cell-based
UACC-257 = assay: NCI human tumor cell panel: UACC-257 (Melanoma); assay type: cell-based
IGROV1 = assay: NCI human tumor cell panel: IGROV1 (Ovarian Cancer); assay type: cell-based
OVCAR-3 = assay: NCI human tumor cell panel: OVCAR-3 (Ovarian Cancer); assay type: cell-based
OVCAR-8 = assay: NCI human tumor cell panel: OVCAR-8 (Ovarian Cancer); assay type: cell-based
786-0 = assay: NCI human tumor cell panel: 786-0 (Renal Cancer); assay type: cell-based
ACHN = assay: NCI human tumor cell panel: ACHN (Renal Cancer); assay type: cell-based
TK-10 = assay: NCI human tumor cell panel: TK-10 (Renal Cancer); assay type: cell-based
UO-31 = assay: NCI human tumor cell panel: UO-31 (Renal Cancer); assay type: cell-based
PC-3 = assay: NCI human tumor cell panel: PC-3 (Prostate Cancer); assay type: cell-based
DU-145 = assay: NCI human tumor cell panel: DU-145 (Prostate Cancer); assay type: cell-based
MCF7 = assay: NCI human tumor cell panel: MCF7 (Breast Cancer); assay type: cell-based
MCF7/ADR-RES = assay: NCI human tumor cell panel: MCF7/ADR-RES (Breast Cancer); assay type: cell-based
HS 578T = assay: NCI human tumor cell panel: HS 578T (Breast Cancer); assay type: cell-based
MDA-MB-435 = assay: NCI human tumor cell panel: MDA-MB-435 (Breast Cancer); assay type: cell-based
MDA-N = assay: NCI human tumor cell panel: MDA-N (Breast Cancer); assay type: cell-based
BT-549 = assay: NCI human tumor cell panel: BT-549 (Breast Cancer); assay type: cell-based
HOP-92 = assay: NCI human tumor cell panel: HOP-92 (Non-Small Cell Lung Cancer)
[1] = read-out: Log10 GI50 (converted)
[2] = read-out: Log10 TGI (converted)

SMILES: OCc1ccc(-c2ccc(-c3ccc[se]3)s2)[se]1 [compound 676631]
- GI50 (CCRF-CEM; [1]): > 100 µM
- IC (TGI) (CCRF-CEM; [2]): > 100 µM
- GI50 (K-562; K562, K-562, read-out: Log10 GI50 (converted)): 102 nM
- IC (TGI) (K-562; K562, K-562, read-out: Log10 TGI (converted)): > 100 µM
- GI50 (MOLT-4; MOLT-4, read-out: Log10 GI50 (converted)): > 100 µM
- IC (TGI) (MOLT-4; MOLT-4, read-out: Log10 TGI (converted)): > 100 µM
- GI50 (RPMI-8226; RPMI-8226, read-out: Log10 GI50 (converted)): > 100 µM
- IC (TGI) (RPMI-8226; RPMI-8226, read-out: Log10 TGI): > 100 µM
- GI50 (A549/ATCC; [1]): 58.9 µM
- IC (TGI) (A549/ATCC; [2]): > 100 µM
- IC (TGI) (NCI-H460): > 100 µM
- GI50 (HCC-2998; HCC-2998, read-out: Log10 GI50 (converted)): 42.7 µM
- IC (TGI) (HCC-2998; HCC-2998, read-out: Log10 TGI (converted)): > 100 µM
- GI50 (HCT-116; HCT-116, read-out: Log10 GI50 (converted)): 53.7 nM
- IC (TGI) (HCT-116; HCT-116, read-out: Log10 TGI (converted)): > 100 µM
- GI50 (SF-295; SF-295, read-out: Log10 GI50 (converted)): 55 µM
- IC (TGI) (SF-295; SF-295, read-out: Log10 TGI (converted)): > 100 µM
- GI50 (SNB-19; SNB-19, read-out: Log10 GI50 (converted)): 17.4 µM
- IC (TGI) (SNB-19; SNB-19, read-out: Log10 TGI (converted)): > 100 µM
- GI50 (SNB-75; SNB-75, read-out: Log10 GI50 (converted)): 41.7 µM
- IC (TGI) (SNB-75; SNB-75, read-out: Log10 TGI (converted)): > 100 µM
- GI50 (U251; U-251, U251, read-out: Log10 GI50 (converted)): 77.6 nM
- IC (TGI) (U251; U-251, U251, read-out: Log10 TGI (converted)): 20 µM
- GI50 (LOX IMVI; [1]): 15.1 µM
- IC (TGI) (LOX IMVI; [2]): 36.3 µM
- GI50 (M14; M14, read-out: Log10 GI50 (converted)): 20 µM
- IC (TGI) (M14; M14, read-out: Log10 TGI (converted)): > 100 µM
- GI50 (SK-MEL-5; SK-MEL-5, read-out: Log10 GI50 (converted)): > 100 µM
- IC (TGI) (SK-MEL-5; SK-MEL-5, read-out: Log10 TGI (converted)): > 100 µM
- GI50 (UACC-257; UACC-257, read-out: Log10 GI50 (converted)): 31.6 nM
- IC (TGI) (UACC-257; UACC-257, read-out: Log10 TGI (converted)): > 100 µM
- GI50 (IGROV1; IGROV-1, IGROV1, read-out: Log10 GI50 (converted)): 81.3 nM
- IC (TGI) (IGROV1; IGROV-1, IGROV1, read-out: Log10 TGI (converted)): 0.603 µM
- GI50 (OVCAR-3; OVCAR-3, read-out: Log10 GI50 (converted)): 27.5 nM
- IC (TGI) (OVCAR-3; OVCAR-3, read-out: Log10 TGI (converted)): 0.138 µM
- GI50 (OVCAR-8; OVCAR-8, read-out: Log10 GI50 (converted)): 24.5 µM
- IC (TGI) (OVCAR-8; OVCAR-8, read-out: Log10 TGI (converted)): > 100 µM
- GI50 (786-0; 786-0, read-out: Log10 GI50 (converted)): > 100 µM
- IC (TGI) (786-0; 786-0, read-out: Log10 TGI (converted)): > 100 µM
- GI50 (ACHN; [1]): > 100 µM
- IC (TGI) (ACHN; [2]): > 100 µM
- GI50 (TK-10; TK-10, read-out: Log10 GI50 (converted)): 50.1 nM
- IC (TGI) (TK-10; TK-10, read-out: Log10 TGI (converted)): 0.372 µM
- GI50 (UO-31; UO-31, read-out: Log10 GI50 (converted)): > 100 µM
- IC (TGI) (UO-31; UO-31, read-out: Log10 TGI (converted)): > 100 µM
- GI50 (PC-3; PC-3, read-out: Log10 GI50 (converted)): 52.5 µM
- IC (TGI) (PC-3; PC-3, read-out: Log10 TGI (converted)): > 100 µM
- GI50 (DU-145; DU-145, read-out: Log10 GI50 (converted)): 20 µM
- IC (TGI) (DU-145; DU-145, read-out: Log10 TGI (converted)): 77.6 µM
- GI50 (MCF7; MCF7, read-out: Log10 GI50 (converted)): 93.3 nM
- IC (TGI) (MCF7; MCF7, read-out: Log10 TGI (converted)): 21.9 µM
- GI50 (MCF7/ADR-RES; [1]): 10 µM
- IC (TGI) (MCF7/ADR-RES; [2]): 31.6 µM
- GI50 (HS 578T; [1]): > 100 µM
- IC (TGI) (HS 578T; [2]): > 100 µM
- GI50 (MDA-MB-435; MDA-MB-435, read-out: Log10 GI50 (converted)): 8.13 µM
- IC (TGI) (MDA-MB-435; MDA-MB-435, read-out: Log10 TGI (converted)): 55 µM
- GI50 (MDA-N; [1]): 16.6 µM
- IC (TGI) (MDA-N; [2]): 43.7 µM
- GI50 (BT-549; BT-549, read-out: Log10 GI50 (converted)): 17 µM
- IC (TGI) (BT-549; BT-549, read-out: Log10 TGI (converted)): 38 µM
- GI50 (HOP-92; HOP-92, read-out: Log10 GI50 (converted)): > 100 µM
- IC (TGI) (HOP-92; HOP-92, read-out: Log10 TGI): > 100 µM
